Results taken from BigSolDB 2.1.

O=C(O)C=CC(=O)O.OCCOCCN1CCN(C2=Nc3ccccc3Sc3ccccc32)CC1.OCCOCCN1CCN(C2=Nc3ccccc3Sc3ccccc32)CC1
solubility (mole fraction)
Conditions | in DMF | in acetone | in ethanol | in ethyl acetate | in isobutanol | in isopropanol | in methanol | in n-butanol | in water
283.15 K | 0.00309 | 0.000106 | 0.000191 | 8.13e-05 | 6.85e-05 | 0.000107 | 0.000388 | 0.000154 | 4.98e-05
288.15 K | 0.00369 | 0.000146 | 0.000244 | 9.87e-05 | 8.53e-05 | 0.000126 | 0.000453 | 0.000216 | 5.57e-05
293.15 K | 0.00419 | 0.000178 | 0.000325 | 0.000142 | 0.000119 | 0.000168 | 0.000545 | 0.000292 | 6.73e-05
298.15 K | 0.00491 | 0.000217 | 0.000408 | 0.000176 | 0.000162 | 0.000203 | 0.000696 | 0.000393 | 7.39e-05
303.15 K | 0.00598 | 0.000251 | 0.000502 | 0.000218 | 0.000204 | 0.000251 | 0.000879 | 0.000502 | 7.99e-05
308.15 K | 0.00684 | 0.000294 | 0.000636 | 0.000255 | 0.000251 | 0.000289 | 0.00121 | 0.000619 | 9.31e-05
313.15 K | 0.0084 | 0.000345 | 0.000838 | 0.000306 | 0.000307 | 0.00036 | 0.00163 | 0.000792 | 0.000108
318.15 K | 0.0102 | 0.000395 | 0.0011 | 0.000365 | 0.000395 | 0.000494 | 0.00202 | 0.000988 | 0.000131
323.15 K | 0.0123 | 0.000475 | 0.00135 | 0.000411 | 0.000481 | 0.000716 | 0.00245 | 0.00118 | 0.000162
